Here are results for one compound from paper PMC7613620, “Reaction hijacking of tyrosine tRNA synthetase as a whole-of-life-cycle antimalarial strategy” (Science (New York, N.Y.), 2022).

The nature of this data set: in vivo. The following applies: male, Sprague-Dawley, rat. The method, then:
625 of 50 mg/kg of compound on day 3 post-infection and measuring the effect on blood parasitemia by
626 microscopic analysis of Giemsa-stained blood smears (on days 3, 4, 5, 6 and 7 post-infection). Mice were
630 Human biological samples were sourced ethically; and their research use was in accord with the terms of
631 the informed consent. All animal studies were ethically reviewed and carried out in accredited facilities in
632 accordance with the relevant country’s directives and the institution’s Policy on the Care, Welfare and
633 Treatment of Animals.
635 Plasma exposure in infected mouse model
636 Compound was administered orally to two mice at 25 mg/kg on days 3, 4, 5, 6 after infection. On day 3,
637 blood samples (20 μL) were obtained at time points up to 24 hours after the first administration. Protein was
638 precipitated with acetonitrile and the remaining compound was assessed by LC-MS/MS in the selected reaction
641 Rat pharmacokinetics (PK) analyses
642 Sprague-Dawley rats (11 weeks old) were sourced from Hilltop Lab Animals, Inc (Scottdale, Pennsylvania,
643 USA). […]
648 0.5% formic acid in methanol and the supernatants were analysed by positive ion electrospray LC-MS for
649 the administered compound. Non-compartmental pharmacokinetic parameters were calculated from […]
660 IGM Genomics Center on the Illumina HiSeq 2500 in RapidRun mode to generate 100bp paired-end reads.

The compound `Nc1ncnc2c1c(OC(F)F)nn2[C@@H]1O[C@H](COS(N)(=O)=O)[C@@H](O)[C@H]1O` [ML901] came in with a Vd (iv, 1 mg/kg, Vss) of 4.89 L/kg. Moreover, for the setting “po, 10 mg/kg, p.o. Cmax”, the peak level (Cmax) was 130 nM.

The Vd is the apparent volume that relates the amount in the body to the concentration in plasma or blood. A high value points to extensive tissue distribution. By Cmax is commonly meant the maximum level reached in the sampled fluid or tissue.
